Test results: patent publication US9403806B1, “Cognition enhancing compounds and compositions, methods of making, and methods of treating” (NeuroSolis, Inc., priority 2010, dated 2016)

Tests used:
Type in all cases: cell-based
[1] = target: T1, human muscarinic M3 receptors (Homo sapiens, UniProt P20309); assay: IP production in A9L cells with human M3 receptors (IPOne TR-FRET), Example 28; details: for huM3/A9L Smax: percentage of maximal stimulation by carbachol; for huM3/A9L ED50 relative to CCh*: potency relative to carbachol at its EC50, semi-quantitative
T1 construct: host or cells: A9L cells
T1 sequence (P20309 whole entry): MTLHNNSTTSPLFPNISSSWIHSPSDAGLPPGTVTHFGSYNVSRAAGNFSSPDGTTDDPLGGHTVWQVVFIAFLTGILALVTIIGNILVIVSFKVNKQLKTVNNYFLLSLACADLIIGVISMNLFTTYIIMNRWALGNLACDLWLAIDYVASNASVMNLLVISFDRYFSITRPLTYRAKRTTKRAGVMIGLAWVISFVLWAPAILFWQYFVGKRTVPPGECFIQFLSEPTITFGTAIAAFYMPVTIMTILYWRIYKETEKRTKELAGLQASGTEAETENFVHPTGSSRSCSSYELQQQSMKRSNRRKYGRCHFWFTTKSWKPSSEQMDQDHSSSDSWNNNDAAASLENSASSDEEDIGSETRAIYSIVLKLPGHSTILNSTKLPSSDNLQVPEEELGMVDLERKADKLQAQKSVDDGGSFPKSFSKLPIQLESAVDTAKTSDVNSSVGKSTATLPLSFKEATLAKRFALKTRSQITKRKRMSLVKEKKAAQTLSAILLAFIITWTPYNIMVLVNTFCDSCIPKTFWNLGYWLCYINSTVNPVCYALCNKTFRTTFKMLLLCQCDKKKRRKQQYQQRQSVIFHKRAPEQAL
Experimental: (§1) Muscarinic M1 and M3 agonist activity was evaluated by measuring the stimulation of inositol phosphate (IP) production in the presence of lithium chloride from A9L cells transfected with expression plasmids containing human muscarinic M1 and M3 receptors, respectively. The cell lines were a gift from Professor W Messer, and the methods were as described in Tejada F R et al. J. Med. Chem. 2006; 49: 7518-31 except that the assay was scaled down to run in 384 well plates, and IP was measured in the cell lysates using the non-isotopic IPOne TR-FRET assay (CIS-BIO, Inc).
(§2) Cells were grown to 90% confluence in 384 well hi-base plates (Greiner Bio-One), compounds were added at suitable concentrations in growth medium containing 10 mM LiCl, buffered with an extra 10 mM HEPES (pH7.4), and incubated for 60 minutes at 37° C. Cells were lysed and assayed for IP following the manufacturer's instructions.
(§3) The value for a full agonist is 100%, while partial agonists give values below 100%.

[2] = target: T2, human muscarinic M1 receptors (Homo sapiens, UniProt P11229); assay: IP production in A9L cells with human M1 receptors (IPOne TR-FRET), Example 28; details: for huM1/A9L Smax: percentage of maximal stimulation by carbachol; for huM1/A9L ED50 relative to CCh*: potency relative to carbachol at its EC50, semi-quantitative; for potency and efficacy at M1 muscarinic receptors (in words): huM1/A9L
T2 construct: host or cells: A9L cells
T2 sequence (P11229 1-460): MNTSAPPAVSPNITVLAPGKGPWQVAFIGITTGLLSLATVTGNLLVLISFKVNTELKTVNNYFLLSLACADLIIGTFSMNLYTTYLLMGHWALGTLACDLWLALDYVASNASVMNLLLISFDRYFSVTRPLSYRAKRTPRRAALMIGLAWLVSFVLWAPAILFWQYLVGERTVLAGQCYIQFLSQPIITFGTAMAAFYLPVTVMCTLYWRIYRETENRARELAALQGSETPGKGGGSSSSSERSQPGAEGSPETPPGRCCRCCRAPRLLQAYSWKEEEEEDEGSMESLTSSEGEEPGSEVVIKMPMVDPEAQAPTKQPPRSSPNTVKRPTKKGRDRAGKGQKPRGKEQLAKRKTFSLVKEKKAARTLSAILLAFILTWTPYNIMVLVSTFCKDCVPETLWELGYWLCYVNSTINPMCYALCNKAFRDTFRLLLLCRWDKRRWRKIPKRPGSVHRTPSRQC
Experimental: as §1, §2, §3

[3] = target: T2, human muscarinic M1 receptors; details: relative to the potency of carbachol at its EC50
Experimental: (§4) Muscarinic M1 and M3 agonist activity was evaluated by measuring the stimulation of inositol phosphate (IP) production in the presence of lithium chloride from A9L cells transfected with expression plasmids containing human muscarinic M1 and M3 receptors, respectively. The cell lines were a gift from Professor William Messer, and the methods were as described in Tejada et al. (J. Med. Chem. 2006; 49: 7518-31) except that the assay was scaled down to run in 384-well plates and the concentration of inositol-1-phosphate in the lysates was determined using the non-isotopic IP-One Terbium TR-FRET assay kit (Cisbio Bioassays, cat. #62IPAPEJ) according to the manufacturer's instructions.
as §2, with “384-well high-base, small-volume” for “384 well hi-base”, “(pH=7.4),” for “(pH7.4),”
as §3

[4] = target: T1, human muscarinic M3 receptors; details: relative to the potency of carbachol at its EC50
Experimental: as §4
as §2, with “384-well high-base, small-volume” for “384 well hi-base”, “(pH=7.4),” for “(pH7.4),”
as §3

Row | SMILES | huM3/A9L Smax [1] | huM3/A9L ED50 relative to CCh* [1] | huM1/A9L Smax [2] | huM1/A9L ED50 relative to CCh* [2] | potency and efficacy at M1 muscarinic receptors (in words) [2] | huM1/A9L Potency relative to carbachol [3] | huM3/A9L Potency relative to carbachol [4]
1 | Cc1noc([C@H]2CNC[C@@H](C)C2)n1 [Compound 20] | 20% | inactive | 9% | inactive |  |  | 
2 | Cc1noc(C2CCCN(C)C2)n1 (stereo not drawn) [Compound 5, 3-Methyl-5-(1-methylpiperidin-3-yl)-1,2,4-oxadiazole] | 20% | inactive | 20% | inactive | essentially inactive |  | 
3 | Cc1noc(C2CCC(C)NC2)n1 (stereo not drawn) [Compound 18, 3-Methyl-5-(6-methylpiperidin-3-yl)-1,2,4-oxadiazole] | 18% | inactive | 14% | inactive |  |  | 
4 | Cc1noc([C@@H]2CCCN[C@@H]2C)n1 [Compound 24] | 32% | inactive | 41% | −− (−− potency <0.1x CCh) |  |  | 
5 | Cc1noc([C@H]2CNCC[C@H]2C)n1 [Compound 22] | 15% | inactive | 7% | inactive |  |  | 
6 | c1nsc(C2CCCNC2)n1 (stereo not drawn) [Compound 12b, 5-(piperidin-3-yl)-1,2,4-thiadiazol] | 60% | −− (−− potency <0.1x CCh) | 100% | − (− potency <0.5-0.1x CCh) |  |  | 
7 | Cc1noc([C@H]2CCCN[C@@H]2C)n1 [Compound 25] | 20% | inactive | 3% | inactive |  |  | 
8 | Cc1noc([C@@H]2CNCC[C@H]2C)n1 [Compound 23] | 19% | inactive | 23% | inactive |  |  | 
9 | Cc1noc([C@H]2CC[C@H](C)NC2)n1 [Compound 19] | 34% | inactive | 15% | inactive |  |  | 
10 | Cc1noc(C23CNCC2C3)n1 (racemic) [Compound 121, 5-(4,4-d2-3-Azabicyclo[3.1.0]hexan-1-yl)-3-methyl-1,2,4-oxadiazole] |  |  |  |  |  | 1.10 | 0.45
11 | Cc1noc([C@@H]2CNC[C@@H](C)C2)n1 [Compound 21] | 14% | inactive | 18% | inactive |  |  | 
12 | Cc1nsc(C2CCCNC2)n1.Cl (stereo not drawn) [Compound 12a, 3-methyl-5-(piperidin-3-yl)-1,2,4-thiadiazole hydrochloride] | 58% | + (+ potency 2-10x CCh) | 101% | + (+ potency 2-10x CCh) |  |  | 
13 | Nc1noc(C2CCCNC2)n1 (stereo not drawn) [Compound 27, 3-Amino-5-(piperidin-3-yl)-1,2,4-oxadiazole] | 20% | +/− (+/− potency 0.5-2x CCh) | 97% | + (+ potency 2-10x CCh) |  |  | 
14 | Cc1noc(C2CCNC2)n1 (stereo not drawn) [Compound 31, 3-methyl-5-(pyrrolidin-3-yl)-1,2,4-oxadiazole] | 60% | − (− potency <0.5-0.1x CCh) | 113% | + (+ potency 2-10x CCh) |  |  | 
15 | CCc1noc(C2CCCNC2)n1 (stereo not drawn) [Compound 38, 3-ethyl-5-(piperidin-3-yl)-1,2,4-oxadiazo1e] | <14% | inactive | 15% | inactive | essentially inactive |  | 
